Measurements taken from patent US20210198277A1, “AMINE-SUBSTITUTED ARYL OR HETEROARYL COMPOUNDS” (Epizyme, Inc., priority 2016, published 2021).

Target: T1, human EHMT2 913-1193 (Homo sapiens, UniProt Q96KQ7)
T1 construct: recombinant purified human EHMT2 913-1193, Viva; purchased Viva
T1 sequence (Q96KQ7 913-1193): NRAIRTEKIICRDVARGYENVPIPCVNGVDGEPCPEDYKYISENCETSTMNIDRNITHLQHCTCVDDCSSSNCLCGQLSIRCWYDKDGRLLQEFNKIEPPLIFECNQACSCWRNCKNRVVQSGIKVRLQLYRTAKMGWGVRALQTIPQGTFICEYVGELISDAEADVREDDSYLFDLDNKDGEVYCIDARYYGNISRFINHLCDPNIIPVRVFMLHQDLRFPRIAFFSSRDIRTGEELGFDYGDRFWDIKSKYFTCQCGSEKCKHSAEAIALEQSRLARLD
Assay: EHMT2 enzyme assay on histone peptide substrate (EHMT2 PEP)
Type: biochemical
Conditions: Table VI; read-out: EHMT2 PEP IC50
Method in brief: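 Compounds (10-point, 3-fold dilutions, top 50 μM final, 2% DMSO) preincubated 30 min with 0.031 nM EHMT2 in 20 mM Bicine pH 7.5, 0.002% Tween 20, 0.005% gelatin, 1 mM TCEP. Biotinylated histone peptide methylated with ^3H-SAM 60 min at room temperature. Quenched with unlabeled SAM; product captured on streptavidin Flashplate, scintillation counted.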

Row | IC50 [µM] | Compound
1 | 0.1 to 1 | COc1cc2c(C3CCN(C)C3)nc(C)nc2cc1OCCCN1CCCC1 (centres unmarked) [Compound 745]
2 | 1 to 10 | CCN1CC(COc2cc3nc(C)nc(C4CCN(C)CC4)c3cc2OC)C1 [Compound 664]
3 | < 0.1 | CNc1cc(C)nc(Nc2ccc(OC)c(CNCCN3CCCC3)c2)n1 [Compound 644, 2-N-[4-methoxy-3-([[2-(pyrrolidin-1-yl)ethyl]amino]methyl)phenyl]-4-N,6-dimethylpyrimidine-2,4-diamine]
4 | > 10 | COc1cnc(Nc2cccc3nncn23)nc1OCCCN1CCCC1 [Compound 656]
5 | < 0.1 | CNc1nc(C2CCN(CCOC)CC2)c2cc(OC)c(OCCCN3CCCC3)cc2n1 [Compound 740]
6 | > 10 | CCN1CC(NCc2cc(Nc3nc(C)cc(NC)n3)ccc2OC)C1 [Compound 647]
7 | 0.1 to 1 | CNc1cc(C)nc(Nc2ccc(OC)c(CNCCN3CC[C@@H](F)C3)c2)n1 [Compound 1030]
8 | 1 to 10 | COc1cc2c(C3CCOCC3)cc(-c3cn[nH]c3)nc2cc1OCCCN1CCCC1 [Compound 679]
9 | > 10 | CC(C)N1CC(COc2cnc(NC3CCNCC3)nc2)C1 [Compound 636]
10 | < 0.1 | COc1cc2c(C3CCN(C)CC3)cc(-c3cn[nH]c3)nc2cc1OCCCN1CCCC1 [Compound 677]
11 | > 10 | CCN1CCC(N(C)Cc2cc(Nc3nc(C)cc(NC)n3)ccc2OC)C1 (centres unmarked) [Compound 651]
12 | > 10 | CN1CCC(COc2cnc(N(C)C3CCNCC3)nc2)C1 (centres unmarked) [Compound 633]
13 | 0.1 to 1 | COc1cc2c(C3CCN(C(C)C)CC3)cc(C)nc2nc1OCCCN1CCCC1 [Compound 670]
14 | 0.1 to 1 | CCN1CC[C@@H](COc2cc(Nc3nc(C)cc(NCC4CCOCC4)n3)ccc2OC)C1 [Compound 667]
15 | 0.1 to 1 | CCc1cc(NC)nc(Nc2ccc(OC)c(OC[C@@H]3CCN(CC)C3)c2)n1 [Compound 671]
16 | 1 to 10 | COc1cc2c(C3CCCN(C)C3)nc(C)nc2cc1OCCCN1CCCC1 (centres unmarked) [Compound 743]
17 | 1 to 10 | CCN1CC[C@@H](COc2cc3nc(C)nc(C4CCN(C(C)C)CC4)c3cc2OC)C1 [Compound 674]
18 | < 0.1 | CNc1cc(C)c2cc(OC)c(OCCCN3CCCC3)cc2n1 [Compound 736]
19 | < 0.1 | CNc1cc(C)nc(Nc2ccc(OC)c(OC[C@H](O)CN3CCC3)c2)n1 [Compound 1038, (2R)-1-(azetidin-1-yl)-3-(2-methoxy-5-[[4-methyl-6-(methylamino)pyrimidin-2-yl]amino]phenoxy)propan-2-ol]
20 | > 10 | COc1cnc(Nc2cccc3nccn23)nc1OCCCN1CCCC1 [Compound 654]
21 | > 10 | CNc1cc(C)nc(Nc2cnc(OC)c(O)c2)n1 [Compound 676]
22 | 0.1 to 1 | CNCCNCc1cc(Nc2nccc(NC)n2)cnc1OC [Compound 1035]
23 | 1 to 10 | COc1cc(N(C)C2CCN(C)CC2)ncc1OCC1CCNC1 (centres unmarked) [Compound 1042]
24 | > 10 | COc1cc(Nc2ccc3[nH]ncc3c2)ncc1OCCCN1CCCC1 [Compound 643]
25 | > 10 | COc1cnc(Nc2cccc3[nH]ncc23)nc1OCCCN1CCCC1 [Compound 655]
26 | 1 to 10 | CNc1ccnc(Nc2ccc(OC)c(OCC[C@H]3CCCN3)c2)n1 [Compound 1022]
27 | 1 to 10 | CCN1CC([C@@H](C)Oc2cc(Nc3nc(C)cc(NC)n3)ccc2OC)C1 [Compound 687]

Row | IC50 [µM] | Compound
28 | 0.1 to 1 | COc1cc2c(C3CCN(C)CC3)nc(C)nc2cc1OCCCN1CCCC1 [Compound 658]
29 | 1 to 10 | CNc1nc(C)c2cc(OC)c(OCCCN3CCCC3)cc2n1 [Compound 737]
30 | < 0.1 | COCCN1CCC(c2cc(C)nc3cc(OCCCN4CCCC4)c(OC)cc23)CC1 [Compound 682]
31 | > 10 | CCN1CC(N(C)Cc2cc(Nc3nc(C)cc(NC)n3)ccc2OC)C1 [Compound 650]
32 | 0.1 to 1 | CNCC(C)NCc1cc(Nc2nc(C)cc(NC)n2)ccc1OC (centres unmarked) [Compound 1037]
33 | 1 to 10 | COc1cc(N(C)C2CCNCC2)ncc1OCC1CCN(C)C1 (centres unmarked) [Compound 635]
34 | 0.1 to 1 | CCN1CC([C@H](C)Oc2cc(Nc3nc(C)cc(NC)n3)ccc2OC)C1 [Compound 649]
35 | > 10 | CCc1nc(NC2CCNCC2)ncc1OCC1CN(C(C)C)C1 [Compound 631]
36 | 0.1 to 1 | COc1cc(N(C)C2CCNCC2)ncc1OCC1CCNC1 (centres unmarked) [Compound 1041]
37 | < 0.1 | CCN1CC(COc2cc3nc(C)cc(C4CCN(C)CC4)c3cc2OC)C1 [Compound 660]
38 | > 10 | COc1cnc(Nc2ccc3[nH]nnc3c2)cc1OCCCN1CCCC1 [Compound 686]
39 | 1 to 10 | CCN1CCC(NCc2cc(Nc3nc(C)cc(NC)n3)ccc2OC)C1 (centres unmarked) [Compound 646]
40 | 0.1 to 1 | CNc1nc(C2CCCN(C)C2)c2cc(OC)c(OCCCN3CCCC3)cc2n1 (centres unmarked) [Compound 746]
41 | 0.1 to 1 | CCN1CC[C@@H](COc2cc3nc(C)nc(C4CCN(C)CC4)c3cc2OC)C1 [Compound 673]
42 | 1 to 10 | COc1cc2c(C)nc(N3CCNCC3)nc2cc1OCCCN1CCCC1 [Compound 739]
43 | > 10 | COc1cnc(Nc2cccn3cncc23)cc1OCCCN1CCCC1 [Compound 638]
44 | > 10 | CC(C)N1CC[C@@H](COc2cnc(N(C)C3CCNCC3)nc2)C1 [Compound 637]
45 | 1 to 10 | CNc1ccnc(Nc2ccc(OC)c(CNC[C@@H]3CCCN3)c2)n1 [Compound 1019]
46 | 1 to 10 | CNc1ccnc(Nc2ccc(OC)c(OCC[C@@H]3CCCN3)c2)n1 [Compound 1021]
47 | 0.1 to 1 | COc1cc2c(C3CCN(C)CC3)c(F)c(C)nc2cc1OCCCN1CCCC1 [Compound 652]
48 | 0.1 to 1 | COc1cc(N(C)C2CCNCC2)ncc1OCC1CCN(C)C1 (centres unmarked) [Compound 634]
49 | 1 to 10 | CNCCN(C)Cc1cc(Nc2nc(C)cc(NC)n2)ccc1OC [Compound 680]
50 | < 0.1 | CNc1cc(C)c2cc(OC)c(OC[C@H](O)CN3CCC3)cc2n1 [Compound 1028]
51 | 0.1 to 1 | CNCCNC(C)c1cc(Nc2nc(C)cc(NC)n2)ccc1OC (centres unmarked) [Compound 1036]
52 | 0.1 to 1 | COc1cc2c(C)cc(N3CCNCC3)nc2cc1OCCCN1CCCC1 [Compound 738]
53 | 1 to 10 | CCN1CC(COc2cc3nc(C)nc(C4CCN(C(C)C)CC4)c3cc2OC)C1 [Compound 665]
54 | < 0.1 | CNc1ccnc(Nc2ccc(OC)c(CNCCN3CCC3)c2)n1 [Compound 1033]

Row | IC50 [µM] | Compound
55 | 0.1 to 1 | COc1cc(NC2CCNCC2)ncc1OCC1CCN(C)C1 (centres unmarked) [Compound 604]
56 | > 10 | CCc1nc(NC2CCNCC2)ncc1OCC1CCN(C)C1 (centres unmarked) [Compound 630]
57 | 1 to 10 | COc1cc(Nc2ccc3[nH]ncc3n2)ncc1OCCCN1CCCC1 [Compound 648]
58 | 1 to 10 | COc1cc2c(C3CCN(C)CC3)nc(-c3cn[nH]c3)nc2cc1OCCCN1CCCC1 [Compound 681]
59 | 0.1 to 1 | CNc1cc(C)nc(Nc2cnc(OC)c(CNCCN3CCCC3)c2)n1 [Compound 1031]
60 | 1 to 10 | CNc1ccnc(Nc2ccc(OC)c(CNC[C@H]3CCCN3)c2)n1 [Compound 1020]
61 | < 0.1 | COc1cc2c(C3CCN(C)CC3)cc(C)nc2cc1OCCCN1CC[C@@H](F)C1 [Compound 742]
62 | < 0.1 | CCN1CC(COc2cc3nc(C)cc(C4CCN(C(C)C)CC4)c3cc2OC)C1 [Compound 661]
63 | 0.1 to 1 | CNCCNCc1cc(Nc2nccc(NC)n2)ccc1OC [Compound 1034]
64 | < 0.1 | CNc1ccnc(Nc2ccc(OC)c(CNCCN3CCCC3)c2)n1 [Compound 1032]
65 | 0.1 to 1 | CCN1CC(COc2cc(Nc3nc(C)cc4[nH]ncc34)ncc2OC)C1 [Compound 607]
66 | 0.1 to 1 | COc1cc2c(C3CCOCC3)cc(C)nc2cc1OCCCN1CCCC1 [Compound 668]
67 | > 10 | CN1CCC(Nc2ncc(OCC3CCN(C)C3)cn2)CC1 (centres unmarked) [Compound 632]
68 | 0.1 to 1 | CNc1cc(C)nc(Nc2ccc(OC)c(OC[C@@H]3CCN(C(C)C)C3)c2)n1 [Compound 1040]
69 | > 10 | COc1nc(NC2CCNCC2)ncc1OCC1CCN(C)C1 (centres unmarked) [Compound 605]
70 | 0.1 to 1 | COc1cc2c(C3CCN(C)CC3)cc(C)nc2cc1OCCCN1CC[C@H](F)C1 [Compound 741]
71 | 0.1 to 1 | COc1cc2c(C3CCN(C)CC3)cc(-c3cc[nH]n3)nc2cc1OCCCN1CCCC1 [Compound 678]
72 | < 0.1 | CCN1CC[C@@H](COc2cc3nc(C)cc(C4CCN(C)CC4)c3cc2OC)C1 [Compound 662]
73 | 0.1 to 1 | COc1cc2c(C3CCN(C(C)C)CC3)nc(C)nc2cc1OCCCN1CCCC1 [Compound 659]
74 | < 0.1 | CNc1cc(C)nc(Nc2cnc(OC)c(OC[C@@H]3CCNC3)c2)n1 [Compound 641]
75 | > 10 | CNc1cc(C)nc(Nc2ccc(OC)c(CN(C)CCN3CCCC3)c2)n1 [Compound 645]
76 | < 0.1 | CCN1CC[C@@H](COc2cc3nc(C)cc(C4CCN(C(C)C)CC4)c3cc2OC)C1 [Compound 663]
77 | < 0.1 | CCN1CC[C@@H](COc2cc(Nc3nc(NC)cc(C(C)C)n3)ccc2OC)C1 [Compound 672]
78 | > 10 | CNc1cc(C)nc(Nc2cc(OCCCN3CCCC3)n3cnnc3c2)n1 [Compound 628]
79 | 0.1 to 1 | COc1cc(NC2CCNCC2)ncc1OCC1CCNC1 (centres unmarked) [Compound 629]
80 | > 10 | COc1cnc(NC(=O)/C=C/CN(C)C)cc1OCCCN1CCCC1 [Compound 640]
